The values below come from patent publication US8178658B2 (Dow AgroSciences, LLC, priority 2008, dated 2012).

Test [1] concerns beet armyworm (BAW; Spodoptera exigua: Lepidoptera). The test can be described thus: 96-well microtiter plate-based high throughput (HTS) diet bioassay on beet armyworm (BAW HTS). The class given is in vivo. The settings on record: for BAW HTS: BAW eggs, 12 μg test compound per well, mortality at 6 d post-treatment, mortality class; for pest or weed control at 12 µg/well, 12 µg/well: Spodoptera exigua, 144 h, read-out: BAW HTS. In outline:
(§1)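 Mortality is the read-out for both formats, scored against a 50% cut-off. Microplate wells received eggs over diet carrying 12 μg test compound, kept in darkness at 29° C for 6 d, six replicates averaged. Diet-tray wells held second instar larvae on diet at 50 μg/cm^2, kept 6 d at 25° C under 14:10 photoperiod.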

The test system is the same in test [2]. Briefly: 128-well diet tray assay on beet armyworm (BAW 50). The class given is in vivo. The settings on record: for BAW 50 ug/cm2: 128-well diet tray assay, 50 μg/cm^2 of test compound on diet, second instar BAW larvae, mortality class; for pest or weed control at 50 µg/cm2, 50 µg/cm2: Spodoptera exigua, 144 h, read-out: BAW 50 ug/cm2. In outline: as §1
[3] abbreviates: 96-well microtiter plate HTS diet assay.

For `CCO[C@@H]1[C@@H](OC)[C@H](C)O[C@@H](OC(=O)Nc2ccc(-c3nc(CC(C)C)n(-c4ccc(OC(F)(F)F)cc4)n3)cc2)[C@@H]1OC` [Compound 219], the “BAW HTS” value in test [1] (96-well HTS diet assay) was “B (either (1) the compound was tested and less than 50 percent mortality was observed or (2) the compound was not tested)”; in test [1] (setting [3]), “B (either (1) the compound was tested and less than 50 percent mortality was observed or (2) the compound was not tested)”. Moreover, the “BAW 50 ug/cm2” value in test [2] was “A (the compound was tested and at least 50 percent mortality was observed)”.
Take `C=C(C)c1nc(-c2ccc(NC(=O)O[C@@H]3O[C@@H](C)[C@H](OC)[C@@H](OCC)[C@H]3OC)cc2)nn1-c1ccc(OC(F)(F)F)cc1` [Compound 220]: the “BAW HTS” value in test [1] (96-well HTS diet assay) is “B (either (1) the compound was tested and less than 50 percent mortality was observed or (2) the compound was not tested)”; in test [1] (setting [3]), “B (either (1) the compound was tested and less than 50 percent mortality was observed or (2) the compound was not tested)”. In addition, the “BAW 50 ug/cm2” value in test [2] is “A (the compound was tested and at least 50 percent mortality was observed)”.
Consider `CCO[C@@H]1[C@@H](OC)[C@H](C)O[C@@H](OC(=O)Nc2ccc(-c3nc(CCSC)n(-c4ccc(OC(F)(F)F)cc4)n3)cc2)[C@@H]1OC` [Compound 221], for which the “BAW HTS” value in test [1] (96-well HTS diet assay) was “B (either (1) the compound was tested and less than 50 percent mortality was observed or (2) the compound was not tested)”; in test [1] (setting [3]), “B (either (1) the compound was tested and less than 50 percent mortality was observed or (2) the compound was not tested)”. In addition, the “BAW 50 ug/cm2” value in test [2] is “A (the compound was tested and at least 50 percent mortality was observed)”.
Turning to `CCO[C@@H]1[C@@H](OC)[C@H](C)O[C@@H](OC(=O)Nc2ccc(-c3nc(C(F)(F)F)n(-c4ccc(OC(F)(F)F)cc4)n3)cc2)[C@@H]1OC` [Compound 222], the “BAW HTS” value was “B (either (1) the compound was tested and less than 50 percent mortality was observed or (2) the compound was not tested)” in test [1] (96-well HTS diet assay); “B (either (1) the compound was tested and less than 50 percent mortality was observed or (2) the compound was not tested)” in test [1] (setting [3]). Further, the “BAW 50 ug/cm2” value in test [2] is “A (the compound was tested and at least 50 percent mortality was observed)”.
On to `CCO[C@@H]1[C@@H](OC)[C@H](C)O[C@@H](OC(=O)Nc2ccc(-c3ncn(-c4ccc(OC(F)(F)F)cc4)n3)cc2Br)[C@@H]1OC` [Compound 223], for which the “BAW HTS” value in test [1] (96-well HTS diet assay) is “B (either (1) the compound was tested and less than 50 percent mortality was observed or (2) the compound was not tested)”; in test [1] (setting [3]) it was “B (either (1) the compound was tested and less than 50 percent mortality was observed or (2) the compound was not tested)”. Further, the “BAW 50 ug/cm2” value in test [2] is “A (the compound was tested and at least 50 percent mortality was observed)”.
With `CCO[C@@H]1[C@@H](OC)[C@H](C)O[C@@H](OC(=O)Nc2ccc(-c3ncn(-c4ccc(OC(F)(F)C(F)(F)F)cc4)n3)cc2Br)[C@@H]1OC` [Compound 224], the “BAW HTS” value in test [1] (96-well HTS diet assay) was “B (either (1) the compound was tested and less than 50 percent mortality was observed or (2) the compound was not tested)”; in test [1] (setting [3]), “B (either (1) the compound was tested and less than 50 percent mortality was observed or (2) the compound was not tested)”. The “BAW 50 ug/cm2” value in test [2] was “A (the compound was tested and at least 50 percent mortality was observed)”.
On to `CCO[C@@H]1[C@@H](OC)[C@H](C)O[C@@H](OC(=O)Nc2ccc(-c3ncn(-c4ccc(OC(F)(F)C(F)(F)C(F)(F)F)cc4)n3)cc2)[C@@H]1OC` [Compound 225], for which the “BAW HTS” value in test [1] (96-well HTS diet assay) was “B (either (1) the compound was tested and less than 50 percent mortality was observed or (2) the compound was not tested)”; in test [1] (setting [3]), “B (either (1) the compound was tested and less than 50 percent mortality was observed or (2) the compound was not tested)”. Besides, the “BAW 50 ug/cm2” value in test [2] was “A (the compound was tested and at least 50 percent mortality was observed)”.
`CCO[C@@H]1[C@@H](OC)[C@H](C)O[C@@H](OC(=O)Nc2ccc(-n3c(C(=O)OC)nn(-c4ccc(OC(F)(F)F)cc4)c3=O)cc2)[C@@H]1OC` [Compound 226]: the “BAW HTS” value in test [1] (96-well HTS diet assay) is “B (either (1) the compound was tested and less than 50 percent mortality was observed or (2) the compound was not tested)”; in test [1] (setting [3]) it was “B (either (1) the compound was tested and less than 50 percent mortality was observed or (2) the compound was not tested)”. Besides, in test [2], the “BAW 50 ug/cm2” value is “B (either (1) the compound was tested and less than 50 percent mortality was observed or (2) the compound was not tested)”.
For `CCO[C@@H]1[C@@H](OC)[C@H](C)O[C@H](OC(=O)Nc2ccc(-n3c(C(=O)OC)nn(-c4ccc(OC(F)(F)F)cc4)c3=O)cc2)[C@@H]1OC` [Compound 227], the “BAW HTS” value in test [1] (96-well HTS diet assay) was “B (either (1) the compound was tested and less than 50 percent mortality was observed or (2) the compound was not tested)”; in test [1] (setting [3]) it was “B (either (1) the compound was tested and less than 50 percent mortality was observed or (2) the compound was not tested)”. For the same molecule, the “BAW 50 ug/cm2” value in test [2] was “B (either (1) the compound was tested and less than 50 percent mortality was observed or (2) the compound was not tested)”.
On to `CCO[C@@H]1[C@@H](OC)[C@H](C)O[C@@H](OC(=O)Nc2ccc(-n3cnn(-c4ccc(OC(F)(F)F)cc4)c3=O)cc2)[C@@H]1OC` [Compound 228], for which the “BAW HTS” value is “B (either (1) the compound was tested and less than 50 percent mortality was observed or (2) the compound was not tested)” in test [1] (96-well HTS diet assay); “B (either (1) the compound was tested and less than 50 percent mortality was observed or (2) the compound was not tested)” in test [1] (setting [3]). For the same molecule, the “BAW 50 ug/cm2” value in test [2] was “B (either (1) the compound was tested and less than 50 percent mortality was observed or (2) the compound was not tested)”.
Regarding `CO[C@@H]1[C@@H](OC)[C@H](C)O[C@@H](OC(=O)Nc2ccc(-n3cnc(-c4ccc(C(F)(F)F)cc4)n3)cc2)[C@@H]1OC` [Compound 229], the “BAW HTS” value was “A (the compound was tested and at least 50 percent mortality was observed)” in test [1] (96-well HTS diet assay); “A (the compound was tested and at least 50 percent mortality was observed)” in test [1] (setting [3]). The “BAW 50 ug/cm2” value in test [2] is “A (the compound was tested and at least 50 percent mortality was observed)”.
For the molecule `CO[C@@H]1[C@@H](OC)[C@H](C)O[C@@H](OC(=O)Nc2ccc(-c3nnc(-c4ccc(Cl)cc4Cl)o3)cc2)[C@@H]1OC` [Compound 230], the “BAW HTS” value is “B (either (1) the compound was tested and less than 50 percent mortality was observed or (2) the compound was not tested)” in test [1] (96-well HTS diet assay); “B (either (1) the compound was tested and less than 50 percent mortality was observed or (2) the compound was not tested)” in test [1] (setting [3]). Moreover, the “BAW 50 ug/cm2” value in test [2] is “A (the compound was tested and at least 50 percent mortality was observed)”.
Regarding `CO[C@@H]1[C@@H](OC)[C@H](C)O[C@@H](OC(=O)Nc2ccc(-c3ccnc(-c4ccc(C(F)(F)F)cc4)n3)cc2)[C@@H]1OC` [Compound 232, {4-[2-(4-trifluoromethylphenyl)-pyrimidin-4-yl]-phenyl}-carbamic acid (2S,3R,4R,5S,6S)-3,4,5-trimethoxy-6-methyl-tetrahydropyran-2-yl ester], the “BAW HTS” value in test [1] (setting [3]) is “A (the compound was tested and at least 50 percent mortality was observed)”. Moreover, in test [1], the pest or weed control at 12 µg/well, 12 µg/well is more than 50%. In test [2], the “BAW 50 ug/cm2” value is “A (the compound was tested and at least 50 percent mortality was observed)”; the pest or weed control at 50 µg/cm2, 50 µg/cm2 is more than 50%.
In the case of `CO[C@@H]1[C@@H](OC)[C@H](C)O[C@@H](OC(=O)Nc2ccc(-c3cc(C(F)(F)C(F)(F)C(F)(F)F)nc(-c4ccc(C(F)(F)F)cc4)n3)cc2)[C@@H]1OC` [Compound 233], the “BAW HTS” value in test [1] (96-well HTS diet assay) is “B (either (1) the compound was tested and less than 50 percent mortality was observed or (2) the compound was not tested)”; in test [1] (setting [3]), “B (either (1) the compound was tested and less than 50 percent mortality was observed or (2) the compound was not tested)”. Moreover, the “BAW 50 ug/cm2” value in test [2] was “A (the compound was tested and at least 50 percent mortality was observed)”.
In the case of `COc1ccc(-c2nccc(-c3ccc(NC(=O)O[C@@H]4O[C@@H](C)[C@H](OC)[C@@H](OC)[C@H]4OC)cc3)n2)cc1` [Compound 234, {4-[2-(4-methoxyphenyl)-pyrimidin-4-yl]-phenyl}-carbamic acid (2S,3R,4R,5S,6S)-3,4,5-trimethoxy-6-methyl-tetrahydropyran-2-yl ester], the “BAW HTS” value in test [1] (setting [3]) is “B (either (1) the compound was tested and less than 50 percent mortality was observed or (2) the compound was not tested)”. In test [1], the pest or weed control at 12 µg/well, 12 µg/well was less than 50%. For the same molecule, in test [2], the “BAW 50 ug/cm2” value was “B (either (1) the compound was tested and less than 50 percent mortality was observed or (2) the compound was not tested)”; the pest or weed control at 50 µg/cm2, 50 µg/cm2 was less than 50%.
Turning to `CO[C@@H]1[C@@H](OC)[C@H](C)O[C@@H](OC(=O)Nc2ccc(-c3cc(C(F)(F)F)nc(-c4ccc(C(F)(F)F)cc4)n3)cc2)[C@@H]1OC` [Compound 235], the “BAW HTS” value in test [1] (96-well HTS diet assay) is “A (the compound was tested and at least 50 percent mortality was observed)”; in test [1] (setting [3]), “A (the compound was tested and at least 50 percent mortality was observed)”. In test [2], the “BAW 50 ug/cm2” value is “B (either (1) the compound was tested and less than 50 percent mortality was observed or (2) the compound was not tested)”.
